Measured values reported in ChEMBL document CHEMBL5625227, “Discovery and optimization of 2,3-diaryl-1,3-thiazolidin-4-one-based derivatives as potent and selective cytotoxic agents with anti-inflammatory activity” (Eur J Med Chem, 2023).
The source made the active and inactive calls. The rule behind the calls is not given here.

How the values were obtained:
[1] = target: T1, Prostaglandin G/H synthase 1 (Ovis aries, UniProt P05979); experiment: Inhibition of ovine COX-1
T1 sequence (P05979 whole entry): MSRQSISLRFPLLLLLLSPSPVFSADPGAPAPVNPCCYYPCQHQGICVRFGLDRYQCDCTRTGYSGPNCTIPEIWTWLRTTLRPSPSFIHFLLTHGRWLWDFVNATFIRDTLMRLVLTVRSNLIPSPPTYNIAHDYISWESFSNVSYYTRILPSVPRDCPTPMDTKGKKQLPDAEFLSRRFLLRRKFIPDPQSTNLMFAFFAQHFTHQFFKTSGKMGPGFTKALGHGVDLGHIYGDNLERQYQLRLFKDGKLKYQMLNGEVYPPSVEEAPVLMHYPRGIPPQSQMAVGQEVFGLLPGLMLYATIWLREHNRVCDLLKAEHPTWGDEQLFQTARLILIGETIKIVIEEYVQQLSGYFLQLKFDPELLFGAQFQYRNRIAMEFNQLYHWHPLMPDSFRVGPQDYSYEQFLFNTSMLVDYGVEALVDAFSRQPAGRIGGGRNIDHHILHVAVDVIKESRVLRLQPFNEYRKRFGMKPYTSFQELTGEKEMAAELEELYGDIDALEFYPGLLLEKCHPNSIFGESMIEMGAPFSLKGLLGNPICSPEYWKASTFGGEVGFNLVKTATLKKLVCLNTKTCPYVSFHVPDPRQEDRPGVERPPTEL

[2] = Cytotoxicity against human MRC5 cells assessed as inhibition in cell growth incubated for 72 hrs by MTT assay; assay type: toxicity, cell-based
Sus scrofa = species: Sus scrofa; experiment: Inhibition of porcine brain tubulin polymerization at 1 uM by fluorescence-based tubulin polymerization assay
HT-29 [3] = experiment: Induction of apoptosis in human HT-29 cells assessed as accumulation of cells at necrotic stage at 0.25 uM incubated for 24 hrs by Annexin V-FITC/propidium iodide staining based flow cytometry analysis (reference value: 8.1%); assay type: functional
Ehrlich [4] = experiment: Antitumor activity against mouse Ehrlich solid carcinoma cells bearing adult male swiss albino mouse assessed as decrease in tumor volume at 50 mg/kg, po administered every other day and observed at 9 days; assay type: functional, organism-based; details: time 9.0 day
[5] = Acute ulcerogenic activity in Sprague-Dawley male rat assessed as average severity of ulcers at 50 mg/kg/day, po administered for 3 days; assay type: toxicity, organism-based; details: in vivo, 72 h, time 3 day
Rattus norvegicus [6] = experiment: Antiinflammatory activity against carrageenan-induced paw edema Sprague-Dawley rat model assessed as inhibition of inflammation at 50 mg/kg, po after 3 hrs relative to control; assay type: functional; design: scale not given: the % may be the effect or the level left
HT-29 [7] = experiment: Anti-migration activity in human HT-29 cells assessed as suppression in cell migration at 0.250 uM incubated 48 hrs by wound-healing assay; assay type: functional, cell-based; details: dose 0.25 µM
Rattus norvegicus [8] = experiment: Antiinflammatory activity against carrageenan-induced paw edema Sprague-Dawley rat model assessed as inhibition of paw edema by measuring edema thickness at 50 mg/kg, po measured after 3 hrs (reference value: 1.41 +/- 0.13 mm); assay type: functional
Rattus norvegicus [9] = experiment: Antiinflammatory activity against carrageenan-induced paw edema Sprague-Dawley rat model assessed as inhibition of paw edema by measuring edema thickness at 50 mg/kg, po measured after 5 hrs (reference value: 1.39 +/- 0.11 mm); assay type: functional
[10] = Acute ulcerogenic activity in Sprague-Dawley male rat assessed as incidence of ulcer/10 animal at 50 mg/kg/day, po administered for 3 days; assay type: toxicity, organism-based; details: in vivo, 72 h, time 3 day
Ehrlich [11] = experiment: Antitumor activity against mouse Ehrlich solid carcinoma cells bearing adult male swiss albino mouse assessed as decrease in tumor volume at 50 mg/kg, po administered every other day and observed at 13 days; assay type: functional, organism-based; details: time 13.0 day
Ehrlich [12] = experiment: Antitumor activity against mouse Ehrlich solid carcinoma cells bearing adult male swiss albino mouse assessed as tumor growth inhibition at 50 mg/kg, po administered every other day and observed at 13 days relative to control; assay type: functional; details: 312 h, time 13 day, read-out: TGI
HT-29 [13] = experiment: Cytotoxicity against human HT-29 cells assessed as inhibition in cell growth incubated for 72 hrs by MTT assay; assay type: functional, cell-based; details: HT-29, 72 h
Rattus norvegicus [14] = experiment: Antiinflammatory activity against carrageenan-induced paw edema Sprague-Dawley rat model assessed as inhibition of inflammation at 50 mg/kg, po after 5 hrs relative to control; assay type: functional; design: scale not given: the % may be the effect or the level left
Rattus norvegicus [15] = experiment: Antiinflammatory activity against carrageenan-induced paw edema Sprague-Dawley rat model assessed as inhibition of inflammation at 50 mg/kg, po after 1 hr relative to control; assay type: functional; design: scale not given: the % may be the effect or the level left
A2780 = experiment: Cytotoxicity against human A2780 cells assessed as inhibition in cell growth incubated for 72 hrs by MTT assay; assay type: functional, cell-based; details: A2780, 72 h
[16] = Selectivity index, ratio of IC50 for cytotoxicity against human MRC5 cells to IC50 for cytotoxicity against human MCF7 cells; details: MRC5 cells versus MCF7 cells
HT-29 [17] = experiment: Induction of apoptosis in human HT-29 cells assessed as accumulation of cells at viable stage at 0.25 uM incubated for 24 hrs by Annexin V-FITC/propidium iodide staining based flow cytometry analysis (Rvb=91.7%); assay type: functional
[18] = Selectivity index, ratio of IC50 for cytotoxicity against human MRC5 cells to IC50 for cytotoxicity against human A2780 cells; details: MRC5 cells versus A2780 cells
[19] = Acute ulcerogenic activity in Sprague-Dawley male rat assessed as average number of ulcers at 50 mg/kg/day, po administered for 3 days; assay type: toxicity, organism-based; details: in vivo, 72 h, time 3 day
Rattus norvegicus [20] = experiment: Antiinflammatory activity against carrageenan-induced paw edema Sprague-Dawley rat model assessed as inhibition of paw edema by measuring edema thickness at 50 mg/kg, po measured after 1 hr (reference value: 0.71 +/- 0.03 mm); assay type: functional
[21] = Acute ulcerogenic activity in Sprague-Dawley male rat assessed as ulcer index at 50 mg/kg/day, po administered for 3 days; assay type: toxicity, organism-based; details: in vivo, 72 h, time 3 day
Ehrlich [22] = experiment: Antitumor activity against mouse Ehrlich solid carcinoma cells bearing adult male swiss albino mouse assessed as decrease in tumor weight at 50 mg/kg, po administered every other day and observed at 14 days; assay type: functional, organism-based; details: time 14.0 day
HT-29 [23] = experiment: Induction of apoptosis in human HT-29 cells assessed as accumulation of cells at early apoptotic stage at 0.25 uM incubated for 24 hrs by Annexin V-FITC/propidium iodide staining based flow cytometry analysis (reference value: 0.1%); assay type: functional
HT-29 [24] = experiment: Induction of apoptosis in human HT-29 cells assessed as accumulation of cells at late apoptotic stage at 0.25 uM incubated for 24 hrs by Annexin V-FITC/propidium iodide staining based flow cytometry analysis (reference value: 0.2%); assay type: functional
[25] = Acute ulcerogenic activity in Sprague-Dawley male rat assessed as change in normal keratin at 50 mg/kg/day, po administered for 3 days by hematoxylin and eosin staining method; assay type: toxicity, organism-based, Stomach; details: in vivo, 72 h, time 3 day
HT-29 [26] = experiment: Anticlonogenic activity against human HT-29 cells assessed as reduction in number of colonies at 0.25 uM incubated for 24 hrs by clonogenic survival assay; assay type: functional, cell-based
[27] = Acute ulcerogenic activity in Sprague-Dawley male rat assessed as change in normal lamina propria at 50 mg/kg/day, po administered for 3 days by hematoxylin and eosin staining method; assay type: toxicity, organism-based, Stomach; details: in vivo, 72 h, time 3 day
[28] = Selectivity index, ratio of IC50 for cytotoxicity against human MRC5 cells to IC50 for cytotoxicity against human HT-29 cells; details: MRC5 cells versus HT-29 cells
[29] = Acute ulcerogenic activity in Sprague-Dawley male rat assessed as change in normal glands at 50 mg/kg/day, po administered for 3 days by hematoxylin and eosin staining method; assay type: toxicity, organism-based, Stomach; details: in vivo, 72 h, time 3 day
MCF7 = experiment: Cytotoxicity against human MCF7 cells assessed as inhibition in cell growth incubated for 72 hrs by MTT assay; assay type: functional, cell-based; details: MCF7, 72 h
Ehrlich [30] = experiment: Antitumor activity against mouse Ehrlich solid carcinoma cells bearing adult male swiss albino mouse assessed as decrease in tumor volume at 50 mg/kg, po administered every other day and observed at 5 days; assay type: functional, organism-based; details: time 5.0 day

With `COc1ccc(NC(=O)COc2ccc(N3C(=O)CSC3c3ccccc3)cc2)cc1` (stereo not drawn) the IC50 [1] was 620 nM, the IC50 at 72 h [2] was 6230 nM and the inhibition (Sus scrofa) was “inactive”. For the same compound, the Activity (HT-29 [3]) was 9.8%, the Activity (Ehrlich [4]) was “Active” and the Activity [5] was 1. For the same compound, the Activity (Rattus norvegicus [6]) was 32.7%, the Activity (HT-29 [7]) was “Active” and the Activity (Rattus norvegicus [8]) was 0.56 mm. For the same compound, the Activity (Rattus norvegicus [9]) was 0.56 mm, the Activity [10] was 3.33% and the Activity (Ehrlich [11]) was “Active”. The inhibition in vivo at 50 mg/kg (Ehrlich [12]) was 27.4%, the IC50 (HT-29 [13]) was 240 nM and the Activity (Rattus norvegicus [14]) was 59.7%. It also gave an Activity (Rattus norvegicus [15]) of 15.3%, an IC50 (A2780) of 670 nM and a selectivity ratio at 72 h [16] of 4.13. For the same compound, the Activity (HT-29 [17]) was 75.8%, the selectivity ratio at 72 h [18] was 9.3 and the Activity [19] was 0.67. For the same compound, the Activity (Rattus norvegicus [20]) was 0.48 mm, the UI [21] was 5 and the Activity (Ehrlich [22]) was “Active”. The Activity (HT-29 [23]) was 9%, the Activity (HT-29 [24]) was 5.3% and the Activity [25] was “Non-Toxic”. For the same compound, the Activity (HT-29 [26]) was “Active”, the Activity [27] was “Non-Toxic” and the selectivity ratio at 72 h [28] was 25.9. For the same compound, the Activity [29] was “Non-Toxic”, the IC50 (MCF7) was 1510 nM and the Activity (Ehrlich [30]) was “Active”.
